What all share (format): biochemical
In test [1] the target is T1, human JAK2 (a.a. 828-1132) (Homo sapiens, UniProt O60674).
T1 construct: JAK2 (a.a. 828-1132); His tag (N); made in house; host or cells: insect cells (baculovirus)
Kind of test: In vitro JAK kinase assay (HTRF, phosphorylation of a biotinylated peptide), JAK2. Particulars: Table D1. An outline of the steps:
(§1)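 Phosphorylation of a biotinylated peptide by the JAK kinase domain, detected by HTRF with Eu-Py20 and SA-APC. ATP was 90 μM for JAK1, 30 μM for JAK2 and 3 μM for JAK3. Reactions ran 1 h at room temperature and were stopped with EDTA, followed by 40 min antibody binding.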

Test [2] has as its target T2, human JAK3 (a.a. 781-1124) (Homo sapiens, UniProt P52333).
T2 construct: JAK3 (a.a. 781-1124); His tag (N); made in house; host or cells: insect cells (baculovirus)
Briefly: In vitro JAK kinase assay (HTRF, phosphorylation of a biotinylated peptide), JAK3. Particulars: Table D1. An outline of the steps: as §1
(In general: TR-FRET usually uses a lanthanide donor and a delayed reading to cut background.)

Test [3] addresses T3, human JAK1 (a.a. 837-1142) (Homo sapiens, UniProt P23458).
T3 construct: human JAK1 (a.a. 837-1142); His tag (N); made in house; host or cells: insect cells (baculovirus)
Kind of test: In vitro JAK kinase assay (HTRF, phosphorylation of a biotinylated peptide), JAK1. Particulars: Table D1; read-out: JAK1 IC50. An outline of the steps: as §1

The target in another test is TYK2 (Homo sapiens, UniProt P29597). Briefly: TYK2 kinase inhibition (Table A1). Particulars: Table D1.

Each structure is given as a SMILES string.

T2 sequence (P52333 781-1124): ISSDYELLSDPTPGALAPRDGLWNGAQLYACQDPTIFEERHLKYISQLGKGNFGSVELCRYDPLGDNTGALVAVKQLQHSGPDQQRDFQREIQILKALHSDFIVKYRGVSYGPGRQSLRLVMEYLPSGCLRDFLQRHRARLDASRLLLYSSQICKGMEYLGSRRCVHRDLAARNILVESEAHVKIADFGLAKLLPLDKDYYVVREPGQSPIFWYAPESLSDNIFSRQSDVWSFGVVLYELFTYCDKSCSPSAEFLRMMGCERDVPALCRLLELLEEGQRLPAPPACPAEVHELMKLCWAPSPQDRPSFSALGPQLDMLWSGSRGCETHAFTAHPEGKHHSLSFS
T3 sequence (P23458 849-1154): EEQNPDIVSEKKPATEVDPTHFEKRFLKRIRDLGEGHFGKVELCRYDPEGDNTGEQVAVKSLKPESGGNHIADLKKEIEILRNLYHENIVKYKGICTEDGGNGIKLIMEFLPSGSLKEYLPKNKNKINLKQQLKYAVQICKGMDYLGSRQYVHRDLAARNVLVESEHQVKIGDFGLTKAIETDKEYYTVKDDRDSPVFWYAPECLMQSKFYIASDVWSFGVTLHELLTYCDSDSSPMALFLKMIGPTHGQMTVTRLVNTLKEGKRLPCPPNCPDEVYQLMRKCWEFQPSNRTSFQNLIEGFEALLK
Chain of TYK2 (P29597 whole entry): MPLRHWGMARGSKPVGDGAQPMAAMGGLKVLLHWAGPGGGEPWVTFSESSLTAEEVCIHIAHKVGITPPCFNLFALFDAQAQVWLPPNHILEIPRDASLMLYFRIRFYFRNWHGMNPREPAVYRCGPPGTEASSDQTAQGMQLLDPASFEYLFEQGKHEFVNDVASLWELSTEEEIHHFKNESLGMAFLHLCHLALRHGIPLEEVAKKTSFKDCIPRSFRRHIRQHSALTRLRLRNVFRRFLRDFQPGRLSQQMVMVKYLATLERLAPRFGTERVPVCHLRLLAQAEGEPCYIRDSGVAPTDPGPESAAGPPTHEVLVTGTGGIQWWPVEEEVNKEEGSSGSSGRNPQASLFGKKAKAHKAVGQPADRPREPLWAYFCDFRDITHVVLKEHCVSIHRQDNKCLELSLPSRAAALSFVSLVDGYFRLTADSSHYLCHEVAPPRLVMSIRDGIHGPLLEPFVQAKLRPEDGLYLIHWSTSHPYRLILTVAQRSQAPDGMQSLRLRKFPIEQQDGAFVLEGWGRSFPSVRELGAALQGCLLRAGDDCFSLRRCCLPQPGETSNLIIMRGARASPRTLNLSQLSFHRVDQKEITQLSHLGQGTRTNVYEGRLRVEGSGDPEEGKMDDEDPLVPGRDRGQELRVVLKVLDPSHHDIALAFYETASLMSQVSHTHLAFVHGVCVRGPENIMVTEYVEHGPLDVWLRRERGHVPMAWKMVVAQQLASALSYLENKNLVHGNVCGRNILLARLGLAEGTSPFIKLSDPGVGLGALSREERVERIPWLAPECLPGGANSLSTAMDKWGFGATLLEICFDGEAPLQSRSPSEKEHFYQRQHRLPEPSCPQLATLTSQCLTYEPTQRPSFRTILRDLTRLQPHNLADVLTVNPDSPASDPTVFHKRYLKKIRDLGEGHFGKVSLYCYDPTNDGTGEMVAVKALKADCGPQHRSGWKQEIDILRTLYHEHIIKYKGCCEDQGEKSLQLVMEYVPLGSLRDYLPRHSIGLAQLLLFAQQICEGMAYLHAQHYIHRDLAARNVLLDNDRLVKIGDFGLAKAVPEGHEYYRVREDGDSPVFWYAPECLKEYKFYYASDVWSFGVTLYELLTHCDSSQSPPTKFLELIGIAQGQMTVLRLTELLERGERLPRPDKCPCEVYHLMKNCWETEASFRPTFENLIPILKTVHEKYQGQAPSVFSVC
T1 sequence (O60674 828-1132): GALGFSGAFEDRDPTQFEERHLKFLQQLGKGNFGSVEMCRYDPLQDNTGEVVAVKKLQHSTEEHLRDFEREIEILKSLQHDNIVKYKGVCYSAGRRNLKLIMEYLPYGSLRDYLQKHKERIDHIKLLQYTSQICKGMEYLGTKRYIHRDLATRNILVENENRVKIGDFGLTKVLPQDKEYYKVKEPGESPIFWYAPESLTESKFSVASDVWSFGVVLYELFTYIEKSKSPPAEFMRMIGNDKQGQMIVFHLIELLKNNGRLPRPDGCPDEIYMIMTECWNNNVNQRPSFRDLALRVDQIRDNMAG

The IC50 is the concentration that gives 50% inhibition. As to `O=C(COc1ccc2cc1CCc1cncc(c1)Nc1ncc(Cl)c(n1)N2)N1CCN(C(=O)c2ccno2)CC1` [Example D260, 6-Chloro-12-{2-[4-(isoxazol-5-ylcarbonyl)piperazin-1-yl]-2-oxoethoxy}-2,4,8,18,22-pentaazatetracyclo[14.3.1.1(3,7).1(9,13)]docosa-1(20),3(22),4,6,9(21),10,12,16,18-nonaene bis(trifluoroacetate)], the IC50 in test [1] is 22 nM; in test [2], greater than 400 nM; in test [3] it was 15 nM; on TYK2, 288 nM.
For `COC(=O)N1CCN(C(=O)COc2ccc3cc2CCc2cncc(c2)Nc2ncc(Cl)c(n2)N3)CC1` [Example D261, Methyl 4-({[6-chloro-2,4,8,18,22-pentaazatetracyclo[14.3.1.1(3,7).1(9,13)]docosa-1(20),3(22),4,6,9(21),10,12,16,18-nonaen-12-yl]oxy}acetyl)piperazine-1-carboxylate bis(trifluoroacetate)], in that order: 106 nM, greater than 400 nM, 31 nM and greater than 400 nM.
For `COCC(=O)N1CCN(C(=O)COc2ccc3cc2CCc2cncc(c2)Nc2ncc(Cl)c(n2)N3)CC1` [Example D262, 6-Chloro-12-{2-[4-(methoxyacetyl)piperazin-1-yl]-2-oxoethoxy}-2,4,8,18,22-pentaazatetracyclo[14.3.1.1(3,7).1(9,13)]docosa-1(20),3(22),4,6,9(21),10,12,16,18-nonaene bis(trifluoroacetate)] the same measures were greater than 400 nM, greater than 400 nM, 150 nM and greater than 400 nM.
For `CCS(=O)(=O)N1CCN(C(=O)COc2ccc3cc2CCc2cncc(c2)Nc2ncc(Cl)c(n2)N3)CC1` [Example D263, 6-Chloro-12-{2-[4-(ethylsulfonyl)piperazin-1-yl]-2-oxoethoxy}-2,4,8,18,22-pentaazatetracyclo[14.3.1.1(3,7).1(9,13)]docosa-1(20),3(22),4,6,9(21),10,12,16,18-nonaene bis(trifluoroacetate)], in that order: 180 nM, greater than 400 nM, 80 nM and greater than 400 nM.
Take `O=C(COc1ccc2cc1CCc1cncc(c1)Nc1ncc(Cl)c(n1)N2)N1CCN(C(=O)Nc2ccccc2)CC1` [Example D264, 4-({[6-Chloro-2,4,8,18,22-pentaazatetracyclo[14.3.1.1(3,7).1(9,13)]docosa-1(20),3(22),4,6,9(21),10,12,16,18-nonaen-12-yl]oxy}acetyl)-N-phenylpiperazine-1-carboxamide bis(trifluoroacetate)]: the IC50 in test [1] was 22 nM; in test [2] it was greater than 400 nM; in test [3], 6.1 nM; on TYK2 it was 300 nM.
For the compound `CNC(=O)N1CCN(C(=O)COc2ccc3cc2CCc2cncc(c2)Nc2ncc(Cl)c(n2)N3)CC1` [Example D265, 4-({[6-Chloro-2,4,8,18,22-pentaazatetracyclo[14.3.1.1(3,7).1(9,13)]docosa-1(20),3(22),4,6,9(21),10,12,16,18-nonaen-12-yl]oxy}acetyl)-N-methylpiperazine-1-carboxamide bis(trifluoroacetate)], the half-inhibitory concentration (IC50) in test [1] is 235 nM; in test [2], greater than 400 nM; in test [3], 34 nM; against TYK2, greater than 400 nM.
On to `Cc1cc(C(=O)N2CCN(C(=O)COc3ccc4cc3CCc3cncc(c3)Nc3ncc(Cl)c(n3)N4)CC2)n[nH]1` [Example D266, 6-Chloro-12-(2-{4-[(5-methyl-1H-pyrazol-3-yl)carbonyl]piperazin-1-yl}-2-oxoethoxy)-2,4,8,18,22-pentaazatetracyclo[14.3.1.1(3,7).1(9,13)]docosa-1(20),3(22),4,6,9(21),10,12,16,18-nonaene tris(trifluoroacetate)], for which the IC50 in test [1] was 21 nM; in test [2] it was greater than 400 nM; in test [3], 31 nM; at TYK2 it was greater than 400 nM.
As to `N#CC1(C(=O)N2CCN(C(=O)COc3ccc4cc3CCc3cncc(c3)Nc3ncc(Cl)c(n3)N4)CC2)CC1` [Example D267, 1-{[4-({[6-Chloro-2,4,8,18,22-pentaazatetracyclo[14.3.1.1(3,7).1(9,13)]docosa-1(20),3(22),4,6,9(21),10,12,16,18-nonaen-12-yl]oxy}acetyl)piperazin-1-yl]carbonyl}cyclopropanecarbonitrile bis(trifluoroacetate)], the 50% inhibitory concentration (IC50) in test [1] was 300 nM; in test [2], greater than 400 nM; in test [3], 84 nM; against TYK2, greater than 400 nM.
`NS(=O)(=O)N1CCN(C(=O)COc2ccc3cc2CCc2cncc(c2)Nc2ncc(Cl)c(n2)N3)CC1` [Example D268, 4-({[6-Chloro-2,4,8,18,22-pentaazatetracyclo[14.3.1.1(3,7).1(9,13)]docosa-1(20),3(22),4,6,9(21),10,12,16,18-nonaen-12-yl]oxy}acetyl)piperazine-1-sulfonamide bis(trifluoroacetate)]: the half-inhibitory concentration (IC50) in test [1] was 36 nM; in test [2] it was greater than 400 nM; in test [3], 15 nM; against TYK2, 49 nM.
As for `N#CCC(=O)N1CCN(C(=O)COc2ccc3cc2CCc2cncc(c2)Nc2ncc(Cl)c(n2)N3)CC1` [Example D269, 3-[4-({[6-Chloro-2,4,8,18,22-pentaazatetracyclo[14.3.1.1(3,7).1(9,13)]docosa-1(20),3(22),4,6,9(21),10,12,16,18-nonaen-12-yl]oxy}acetyl)piperazin-1-yl]-3-oxopropanenitrile bis(trifluoroacetate)], the concentration for half-maximal inhibition (IC50) in test [1] was 226 nM; in test [2], greater than 400 nM; in test [3] it was 29 nM; at TYK2 it was greater than 400 nM.
Turning to `NC(=O)N1CCN(C(=O)COc2ccc3cc2CCc2cncc(c2)Nc2ncc(Cl)c(n2)N3)CC1` [Example D270, 4-({[6-Chloro-2,4,8,18,22-pentaazatetracyclo[14.3.1.1(3,7).1(9,13)]docosa-1(20),3(22),4,6,9(21),10,12,16,18-nonaen-12-yl]oxy}acetyl)piperazine-1-carboxamide bis(trifluoroacetate)], the 50% inhibitory concentration (IC50) in test [1] is 80 nM; in test [2], greater than 400 nM; in test [3], 23 nM; against TYK2, 265 nM.
Regarding `O=C(COc1ccc2cc1CCc1cncc(c1)Nc1ncc(Cl)c(n1)N2)N1CCN(C(=O)C2CCOC2)CC1` (stereo not shown) [Example D271, 6-Chloro-12-{2-oxo-2-[4-(tetrahydrofuran-3-ylcarbonyl)piperazin-1-yl]ethoxy}-2,4,8,18,22-pentaazatetracyclo[14.3.1.1(3,7).1(9,13)]docosa-1(20),3(22),4,6,9(21),10,12,16,18-nonaene bis(trifluoroacetate)], the IC50 is greater than 400 nM in test [1], greater than 400 nM in test [2], 75 nM in test [3] and greater than 400 nM against TYK2.
Take `O=C(COc1ccc2cc1CCc1cncc(c1)Nc1ncc(Cl)c(n1)N2)N1CCN(C(=O)C2CCCO2)CC1` (stereo not shown) [Example D272, 6-Chloro-12-{2-oxo-2-[4-(tetrahydrofuran-2-ylcarbonyl)piperazin-1-yl]ethoxy}-2,4,8,18,22-pentaazatetracyclo[14.3.1.1(3,7).1(9,13)]docosa-1(20),3(22),4,6,9(21),10,12,16,18-nonaene bis(trifluoroacetate)]: the half-maximal inhibitory concentration (IC50) in test [1] is 288 nM; in test [2] it was greater than 400 nM; in test [3], 38 nM; against TYK2 it was greater than 400 nM.

(Values after US8871753B2, “Macrocyclic compounds and their use as kinase inhibitors” (Incyte Corporation, priority 2008, dated 2014).)
